Columns and labels:
Assay in all cases: relative viability (nuclei count vs DMSO), 5 days (fraction); higher = more cells survive
[1] = compound: COc1cc(-c2nn([C@H]3CC[C@H](N4CCN(C(C)=O)CC4)CC3)c3ncnc(N)c23)ccc1NC(=O)c1cc2ccccc2n1C + Nc1nc2[nH]cc(CCc3ccc(C(=O)N[C@@H](CCC(=O)O)C(=O)O)cc3)c2c(=O)[nH]1 [Pemetrexed] (partner 0.2 µM)
How it was run: (§1)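 Lung cancer cell lines in 1536-well plates got either a single drug or a fixed anchor-drug dose together with five library-drug doses (not always all listed) in √10 steps, by pin tool, on the day after seeding. Nuclei were counted after 5 days, and relative viability is the treated-to-vehicle ratio of nuclei counts. Values are medians of duplicate plates.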

[2] = compound: COc1cc(-c2nn([C@H]3CC[C@H](N4CCN(C(C)=O)CC4)CC3)c3ncnc(N)c23)ccc1NC(=O)c1cc2ccccc2n1C + CC(=O)Nc1cccc(-n2c(=O)n(C3CC3)c(=O)c3c(Nc4ccc(I)cc4F)n(C)c(=O)c(C)c32)c1 [Trametinib] (partner 0.02 µM)
How it was run: as §1

[3] = compound: CO[C@@H]1[C@H](N(C)C(=O)c2ccccc2)C[C@H]2O[C@]1(C)n1c3ccccc3c3c4c(c5c6ccccc6n2c5c31)C(=O)NC4 [Midostaurin] + COc1cc2c(Oc3ccc(NC(=O)C4(C(=O)Nc5ccc(F)cc5)CC4)cc3F)ccnc2cc1OCCCN1CCOCC1 [Foretinib] (partner 0.25 µM)
How it was run: as §1

[4] = compound: CO[C@@H]1[C@H](N(C)C(=O)c2ccccc2)C[C@H]2O[C@]1(C)n1c3ccccc3c3c4c(c5c6ccccc6n2c5c31)C(=O)NC4 [Midostaurin] + C[C@@H](Oc1cc(-c2cnn(C3CCNCC3)c2)cnc1N)c1c(Cl)ccc(F)c1Cl [Crizotinib] (partner 1 µM)
How it was run: as §1

[5] = compound: COc1cc(-c2nn([C@H]3CC[C@H](N4CCN(C(C)=O)CC4)CC3)c3ncnc(N)c23)ccc1NC(=O)c1cc2ccccc2n1C + CS(=O)(=O)N1CCN(Cc2cc3nc(-c4cccc5[nH]ncc45)nc(N4CCOCC4)c3s2)CC1 [Pictilisib] (partner 1 µM)
How it was run: as §1

Cell Line	relative viability ([1]; first compound 0.0128 µM)	relative viability ([1]; first compound 0.04048 µM)	relative viability ([1]; first compound 0.128 µM)	relative viability ([1]; first compound 1.28 µM)	relative viability ([2]; first compound 0.0128 µM)	relative viability ([2]; first compound 0.04048 µM)	relative viability ([2]; first compound 0.128 µM)	relative viability ([2]; first compound 1.28 µM)	relative viability ([3]; first compound 0.01 µM)	relative viability ([3]; first compound 0.03162 µM)	relative viability ([3]; first compound 0.1 µM)	relative viability ([3]; first compound 0.3162 µM)	relative viability ([4]; first compound 0.01 µM)	relative viability ([4]; first compound 0.03162 µM)	relative viability ([4]; first compound 0.1 µM)	relative viability ([4]; first compound 0.3162 µM)	relative viability ([5]; first compound 0.0128 µM)	relative viability ([5]; first compound 0.04048 µM)	relative viability ([5]; first compound 0.128 µM)	relative viability ([5]; first compound 1.28 µM)
NCI-H2009	1.03	1.09	1.21	1.19	0.251	0.252	0.236	0.195	1.22	1.09	0.88	1.16	1.07	0.98	0.996	1.06	0.783	0.303	0.649	0.578
NCI-H2405	1.02	0.698	0.991	0.426	0.645	0.307	0.532	0.347	1.05	0.985	1.01	0.96	0.787	0.825	0.797	0.842	0.422	0.26	0.303	0.258
NCI-H1755	0.438	0.43	0.577	0.57	0.907	0.651	0.769	0.745	0.944	0.848	0.787	0.628	0.808	0.805	0.761	0.484	0.509	0.169	0.402	0.299
HCC-78	0.939	0.879	0.889	0.91	0.851	0.536	0.776	0.453	0.65	0.532	0.541	0.555	0.363	0.288	0.38	0.329	0.23	0.181	0.21	0.196
LOU-NH91	0.395	0.348	0.363	0.433	0.821	0.828	0.822	0.728	0.976	0.903	1.01	1.01	0.753	0.748	0.758	0.721	0.517	0.555	0.511	0.509
NCI-H3122	0.19		0.201	0.194	0.209		0.165	0.162	0.926	0.94	0.718	0.976	0.286	0.258	0.3	0.331	0.552		0.548	0.484
HCC-827	0.253	0.251	0.211	0.238	0.574	0.341	0.525	0.286	0.98	1.04	1.01	1.05	0.856	0.844	0.858	0.905	1.1	1.22	0.902	0.783
SK-LU-1	1.06	1.03	0.936	0.686	0.455	0.316	0.432	0.336	0.799	0.869	0.747	0.621	0.913	0.948	0.914	0.584	0.54	0.488	0.498	0.269
NCI-H1975	0.318	0.29	0.297	0.255	0.328	0.293	0.349	0.207	0.925	1.01	0.952	0.647	1	0.963	0.863	0.623	0.322	0.31	0.234	0.149
NCI-H1651	0.57	0.617	0.57	0.438	0.843	0.832	0.79	0.771	0.882	0.819	0.764	0.683	0.916	0.85	0.918	0.889	0.489	0.525	0.483	0.43
NCI-H441	0.275	0.306	0.254	0.295	0.438	0.463	0.407	0.336	0.808	0.848	0.858	0.693	0.778	0.807	0.596	0.764	0.551	0.43	0.602	0.421
LCLC-103H	0.54	0.428	0.47	0.471	0.717	0.58	0.583	0.664	0.729	0.661	0.656	0.791	1.05	1.01	0.982	1.02	0.656	0.691	0.571	0.49
LCLC-97TM1	0.182	0.185	0.171	0.19	0.22	0.125	0.139	0.133	1	0.937	0.817	0.913	0.418		0.205	0.304	0.229	0.107	0.227	0.281
NCI-H1355	1.18	1.06	1.01	0.967	0.416	0.313	0.387	0.447	1.02	0.913	0.817	0.971	0.965	1.01	0.987	1	0.584	0.295	0.412	0.406
HOP-62	0.382	0.332	0.289	0.387	0.428	0.173	0.376	0.296	1.14	1.04	1.16	1.2	0.846	0.624	0.988	1.15	0.831	0.285	0.738	0.604
NCI-H2085	0.915	0.86	0.81	0.539	0.611	0.643	0.405	0.334	1.02	0.845	0.863	0.555	0.769	0.805	0.814	0.582	0.532	0.484	0.381	0.458

Source: the supplement of paper PMC10307832
